# Laboratory results as given in publication PMC5457702 (Molecular cancer therapeutics, 2017).
# Read-outs that look alike come from different tables or passages of the source.
# Columns and labels:
# HCC-78 cells = assay: Cell viability; format: cell-based, human; settings: for IC50: read-out: Cell growth inhibition IC50, HCC78
# BRD4-1 [1] = target: T1, BRD4-1 (Homo sapiens, UniProt O60885); assay: Differential scanning fluorimetry; format: binding; settings: 100 μM inhibitor, 4 μM BRD4-1; mean of 3 experiments in quadruplicate
# SAOS2 cells = assay: Cell viability; format: cell-based, human; settings: for IC50: read-out: Cell growth inhibition IC50, SAOS2
# UKE-1 cells [2] = assay: Cell viability; format: cell-based, human; settings: read-out: Cell growth inhibition IC50, UKE-1
# [3] = system: c-MYC, p-STAT3, c-PARP levels in MM1.S cells; assay: Immunoblotting of biomarkers in MM1.S; format: cell-based, human; settings: 6 h drug exposure
# BRD4-1 [4] = target: T1, BRD4-1; assay: qPCR binding assay, BRD4-1; settings: read-out: BRD4-1 Kd, qPCR; single experiment in duplicate
# BRDT-1 = BRDT-1 (Homo sapiens, UniProt Q58F21); assay: Alpha Screen binding assay, BRDT-1; settings: relative to BRD4
# MM1.S cells [5] = assay: Cell viability; format: cell-based, human; settings: read-out: Cell growth inhibition IC50, MM1.S, 72 h
# 931 cancer cell lines = assay: Cancer cell line screening; format: cell-based; settings: 72 h, read-out: mean IC50 across cell line panel
# UKE-1 cells [6] = assay: Development of drug resistance in UKE-1 cells; format: cell-based, human; settings: two months, starting at IC20
# MM1.S cells [7] = assay: Flow cytometry cell cycle analysis, MM1.S; format: cell-based, human; settings: 0.5 μM, 24 h
# BRD4 = settings: read-out: IC50(BRD4); cited from earlier work
Compound,"IC50 (HCC-78 cells; 72 h, Cell titer blue)","ΔTm, DSF (BRD4-1 [1])","IC50 (SAOS2 cells; 72 h, Cell titer blue)","IC50 (UKE-1 cells [2]; 72 h, Cell titer blue)","onset of apoptosis, c-PARP levels [3]",IC50 (MM1.S cells [5]; Cell titer blue),development of resistance upon prolonged exposure (UKE-1 cells [6]),cell cycle effect / G1 arrest (MM1.S cells [7]),"IC50 (HCC-78 cells; Homo sapiens, HCC78, 72 h)","IC50 (SAOS2 cells; Homo sapiens, SAOS-2, 72 h)","IC50 (UKE-1 cells [2]; Homo sapiens, UKE1, 72 h)","IC50 (MM1.S cells [5]; Homo sapiens, MM1.S)",other results
(+)-JQ1,2600 nM,8.8 °C,1500 nM,210 nM,ineffective,100 nM,,,,,,,"maximum fraction affected, HCC-78 (HCC-78 cells; 72 h, Hill fit): ~ 0.5; maximum fraction affected, SAOS-2 (SAOS2 cells; 72 h, Hill fit): ~ 0.5; Kd (BRD4-1 [4]): 9.1 nM; fold less active against BRDT-1 (BRDT-1): 7 fold"
Cc1cnc(Nc2ccc(OCCN3CCCC3)cc2)nc1Nc1cccc(S(=O)(=O)NC(C)(C)C)c1 [TG101348],,,,,,,,,,,,,IC50 (931 cancer cell lines): 10000 nM
Cc1cnc(Nc2ccc(N3CCN(C)CC3)cc2)nc1Nc1cccc(S(=O)(=O)NC(C)(C)C)c1 [TG101209],1900 nM,6.8 °C,1500 nM,320 nM,,1400 nM,readily developed resistance,moderate increase of cells in G1,,,,,IC50 (BRD4): […]
CC(C)(C)c1cc(NC(=O)Nc2ccc(-c3cn4c(n3)sc3cc(OCCN5CCOCC5)ccc34)cc2)no1 [Quizartinib],,,,,,,,only slightly affected,> 10000 nM,> 10000 nM,9500 nM,> 10000 nM,
N#CC[C@H](C1CCCC1)n1cc(-c2ncnc3[nH]ccc23)cn1 [Ruxolitinib],,,,,ineffective,,readily developed resistance,only slightly affected,> 10000 nM,> 10000 nM,170 nM,> 10000 nM,
